Assay results as given in patent publication US12565475B2, “Small molecule compound inhibiting signal transmission path of TLR7 and TLR9 and use thereof” (AJOU UNIVERSITY INDUSTRY-ACADEMIC COOPERATION FOUNDATION, priority 2019, dated 2026).
“Also recorded” adds a separate entry of the source.

Target: T1, TLR9 (Mus musculus, UniProt Q9EQU3)
T1 construct: endogenous in cells; host or cells: RAW 264.7
T1 sequence (Q9EQU3 26-1032): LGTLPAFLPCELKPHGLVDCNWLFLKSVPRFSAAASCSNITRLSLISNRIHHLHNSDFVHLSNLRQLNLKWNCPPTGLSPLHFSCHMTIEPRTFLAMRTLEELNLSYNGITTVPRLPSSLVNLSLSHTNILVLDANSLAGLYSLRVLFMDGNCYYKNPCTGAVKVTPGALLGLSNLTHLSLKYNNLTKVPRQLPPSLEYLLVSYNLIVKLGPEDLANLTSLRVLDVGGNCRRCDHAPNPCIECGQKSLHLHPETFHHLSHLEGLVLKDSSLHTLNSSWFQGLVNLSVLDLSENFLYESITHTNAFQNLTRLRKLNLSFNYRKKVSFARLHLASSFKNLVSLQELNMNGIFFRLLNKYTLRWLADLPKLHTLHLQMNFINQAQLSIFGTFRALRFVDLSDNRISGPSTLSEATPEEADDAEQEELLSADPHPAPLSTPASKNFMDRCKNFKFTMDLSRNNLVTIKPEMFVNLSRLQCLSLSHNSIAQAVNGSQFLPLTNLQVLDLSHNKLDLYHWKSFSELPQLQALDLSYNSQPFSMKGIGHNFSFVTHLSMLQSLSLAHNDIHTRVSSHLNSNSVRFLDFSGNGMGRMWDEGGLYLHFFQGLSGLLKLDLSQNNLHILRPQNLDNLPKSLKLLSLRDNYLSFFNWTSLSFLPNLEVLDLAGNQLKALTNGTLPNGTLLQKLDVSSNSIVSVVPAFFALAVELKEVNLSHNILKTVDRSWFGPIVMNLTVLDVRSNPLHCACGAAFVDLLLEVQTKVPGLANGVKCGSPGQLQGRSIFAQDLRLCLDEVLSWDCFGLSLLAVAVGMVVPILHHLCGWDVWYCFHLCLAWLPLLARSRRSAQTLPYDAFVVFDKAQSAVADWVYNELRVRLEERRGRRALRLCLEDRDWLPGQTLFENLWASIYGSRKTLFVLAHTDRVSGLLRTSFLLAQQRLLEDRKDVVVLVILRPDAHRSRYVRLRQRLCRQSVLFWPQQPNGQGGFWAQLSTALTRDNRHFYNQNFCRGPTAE
Test: TLR9-mediated TNF-α secretion (ODN2395 stimulation), ELISA
Assay type: cell-based, murine
Method: Agonists specific to TLR1/TLR2 (Pam3CSK4), TLR2/TLR6 (FSL-1), TLR3 (Poly I:C), TLR7 (imiquimod), and TLR8 (TL8-506) were purchased from InvivoGen Ltd. (Hong-Kong, China), and a TLR4-specific agonist (LPS from E. coli O111:B4) was purchased from Sigma-Aldrich, Inc. For TLR9-specific stimulation, class C CpG-ODN (ODN2395, 5′-TCGTCGTTTTCGGCGCGCGCCG-3′) having full phosphorothioate backbone modification was synthesized (Bioneer, Inc., Daejeon, Korea). All TLR agonists were dissolved in deionized water and applied to a culture media for TLR activation. The cells were treated with test compounds or a control medium for 1 hour, and then stimulated with a TLR agonist for 4 hours, or 24 hours in the case of poly(I:C), and the cytokine secretion was monitored.
RAW 264.7 or differentiated THP-1 cell lines were seeded onto a 96-well culture plate at a density of 2×10^4 cells/well. The cells were treated with test compounds for 1 hour followed by the stimulation with TLR agonists for 4 hours. The supernatant was transferred to pre-coated assay plates, and the secretion levels of mouse and human TNF-α were measured by respective ELISA kits (Invitrogen, Carlsbad, CA, USA). All experiments were performed according to the manufacturer's instructions. Absorbance was measured by a microplate reader spectrophotometer (Molecular Devices, Inc., San Jose, CA, USA), and data was interpolated from a standard curve using SoftMax Pro 5.3 software (Molecular Devices, Inc.).
In order to evaluate the antagonistic effect of each compound on TLR7/TLR9 through ELISA (enzyme-linked immunosorbent assay), RAW 264.7 cells were pretreated with the eight compounds followed by the stimulation with a TLR7-specific agonist (imiquimod, 3.61 μM) or with a TLR9-specific agonist (ODN2395, 0.5 μM). […] Since the two ligands had no agonistic effect per se (FIG. 3B), the increased cytokine production may be due to cell activation (or non-specific cellular stress) by co-treatment. Consequently, TIC10 was selected as the most suitable lead for further optimization to improve the inhibitory potency against both TLR7 and TLR9.

TLR9-mediated TNF-α secretion (RAW 264.7, 10 or 20 μM, ODN2395 (receptor specificity, FIG. 6)): moderately reduced
IC50 (RAW 264.7, ODN2395 (FIG. 4C)): 6.71 µM
Compound: COc1ccc(CNc2ncc(-c3ccc4c(c3)OCO4)n2C)c(OC)c1 [TIC10-7, 5-(2H-1,3-benzodioxol-5-yl)-N-[(2,4-dimethoxyphenyl)methyl]-1-methyl-1H-imidazol-2-amine]
inhibitory efficacy on TLR9-mediated TNF-α secretion (RAW 264.7, 10 or 50 μM, ODN2395 (FIG. 4A)): improved inhibitory efficacy compared to TIC10; also recorded: significant reduction
